pIC50: −log10 of the molar value.
Key:
[1] = system: farnesyl-modification of Ras protein in NIH3T3 cells transformed by activated ras gene; assay: Inhibitory activities against farnesyl-modification of Ras protein in NIH3T3 cells transformed by activated ras gene; format: cell-based; conditions: Mus musculus, 24 hours, proportion of non-farnesyl-modified Ras protein by densitometer, read-out: 50% inhibitory concentrations against farnesyl-modification of Ras protein, IC50
Description: PHARMACOLOGICAL TEST EXAMPLE 2
(Inhibitory Activities Against Farnesyl-Modification of Ras Protein)
Using the compounds of the present invention, inhibitory activities against farnesyl-modification of Ras protein in NIH3T3 cells transformed by activated ras gene, were measured.
The NIH3T3 cells transformed by activated ras gene, were seeded on a culture plate and cultured for 3 days. Then, a compound of the present invention in a predetermined concentration was added to the culture. In accordance with the method disclosed in J. Biol. Chem., vol. 268, p. 18415 (1993), the cells were cultured for 24 hours and then taken off from the plate, and the cells were dissolved. After centrifugal separation for 5 minutes under 12000 g, the supernatant was used as a cell extract. The cell extract was subjected to SDS polyacrylamide gel electrophoresis to separate farnesyl-modified Ras protein and non-farnesyl-modified Ras protein. The protein on the gel was transferred onto a nitrocellulose membrane, and an anti-Ras protein antibody was reacted as a probe (primary antibody reaction). An anti-primary antibody, a peroxidase inclusion (secondary antibody), was reacted, and then Ras protein was detected by a chemical fluorescence enhancing kit. The proportion of non-farnesyl-modified Ras protein was quantified by a densitometer and taken as the inhibitory activity.
The 50% inhibitory concentrations (IC50 values) of the compounds of the present invention against farnesyl-modification of Ras protein as shown in Table

[2] = biological target: T1, protein-farnesyl transferase (PFT) (Rattus norvegicus, UniProt Q02293+Q04631); assay: Inhibitory activities against protein-farnesyl transferase; format: biochemical; conditions: PFT derived from rat brain; prenyl acceptor H-ras protein or biotin-added Lys-Thr-Ser-Cys-Val-Ile-Met; 37° C., 20 minutes; read-out: 50% inhibitory concentrations against PFT activities, IC50
T1 construct: PFT derived from rat brain; from tissue; host or cells: rat brain, soluble fraction (30-50% ammonium sulfate cut, Q-Sepharose fraction)
Description: Inhibitory activities against protein-farnesyl transferase
PFT was separated in such a manner that a soluble fraction of rat's brain was fractionated by means of 30%-50% saturated ammonium sulfate, further dialyzed and then subjected to column chromatography by Q-cephalose™ (manufactured by Pharmacia) (Reiss et al, Cell, vol. 62, p. 81-88 (1990)).
(2) Method for measuring PFT activities
Measurement of PFT activities was conducted by using, as a prenyl acceptor, H-ras protein or a substance that biotin was added to N-terminal of a peptide corresponding to a 7 amino acid residue at C terminal of K-rasB protein (biotin-added Lys-Thr-Ser-Cys-Val-Ile-Met) and, as a prenyl doner, [^3 H]-labeled farnesylpyrophosphate (FPP) (Reiss et al, Methods: A Companion to a Methods in Enzymology, vol. 1, No. 3, p. 241-245 (1990)). […]
The enzymatic reaction product containing H-ras protein as the prenyl acceptor, was analyzed by SDS-PAGE (sodium dodecylsulfate/polyacrylamide gel electrophoresis). […]
The measurement of PFT activities using H-ras protein as the prenyl receptor, was also analyzed by a rapid separate method. […]

SMILES	pIC50 [1]	pIC50 [2]
C[C@H]([C@H](Cc1ccc(C(=O)Nc2ccccc2)o1)c1ccc([N+](=O)[O-])cc1)N(Cc1ccc2ccccc2c1)C(=O)C(O)=C(CC(=O)O)C(=O)OC(C)(C)C (racemic) [Example 25, 3-tert-butoxycarbonyl-4-hydroxy-4-[N-[(1RS,2RS)-1-methyl-2-(4-nitrophenyl)-3-{5-(phenylcarbamoyl)-2-furyl}propyl]-N-(2-naphthylmethyl)carbamoyl]-3-butenoic acid]	7.68	
C=CCOC(=O)C(CC(=O)O)=C(O)C(=O)N(Cc1ccc2ccccc2c1)[C@H](C)[C@H](Cc1ccc(C(=O)Nc2ccccc2)o1)c1ccc2c(c1)OCO2 (racemic) [Example 29, 3-allyloxycarbonyl-4-hydroxy-4-[N-[(1RS,2RS)-1-methyl-2-(3,4-methylenedioxyphenyl)-3-{5-(phenylcarbamoyl)-2-furyl}propyl]-N-(2-naphthylmethyl)carbamoyl]-3-butenoic acid]	8.33	
CC(C)OC(=O)C(CCC(=O)O)=C(O)C(=O)N(Cc1ccc2ccccc2c1)[C@H](C)[C@H](Cc1ccc(C(=O)Nc2ccccc2)o1)c1ccc([N+](=O)[O-])cc1 (racemic) [Example 30, 5-hydroxy-4-isopropoxycarbonyl-5-[N-[(1RS,2RS)-1-methyl-2-(4-nitrophenyl)-3-{5-(phenylcarbamoyl)-2-furyl}propyl]-N-(2-naphthylmethyl)carbamoyl]-4-pentenoic acid]	7.68	
C[C@H]([C@H](Cc1ccc(C(=O)Nc2ccccc2)o1)c1ccc([N+](=O)[O-])cc1)N(Cc1ccc2ccccc2c1)C(=O)CC(CC(=O)O)C(=O)O (stereo partly drawn) [Example 1, N-[(1-RS,2RS)-1-methyl-2-(4-nitrophenyl)-3-{5-(phenylcarbamoyl)-2-furyl}propyl]-N-(2-naphthylmethyl)carbamoylmethylsuccinic acid]		9.22
C[C@H]([C@H](Cc1cccc(C(=O)Nc2ccccc2)c1)c1ccc(Cl)cc1)N(Cc1ccc2ccccc2c1)C(=O)CC(CC(=O)O)C(=O)O (stereo partly drawn) [Example 10, N-{(1RS,2RS)-2-(4-chlorophenyl)-1-methyl-3-(3-phenylcarbamoylphenyl)propyl}-N-(2-naphthylmethyl)carbamoylmethylsuccinic acid]		8.74

Reference: US6017956A, “N,N-disubstituted amic acid derivatives” (Banyu Pharmaceutical Co., Ltd., priority 1994, dated 2000)
